# Data from article PMC11356900, “Synthesis, Structural Properties and Biological Activities of Novel Hydrazones of 2-, 3-, 4-Iodobenzoic Acid” (Molecules, 2024).
# Read-outs that look alike come from different tables or passages of the source.
# Experiments:
# [1] = test system: Micrococcus luteus ATCC 10240; experiment: Broth microdilution MIC/MBC; details: Micrococcus luteus, ATCC10240
# [2] = test system: Klebsiella pneumoniae ATCC 13883; experiment: Broth microdilution MIC/MBC; details: ATCC13883
# [3] = test system: Staphylococcus epidermidis ATCC 12228; experiment: Broth microdilution MIC/MBC; details: ATCC12228
# [4] = test system: Bordetella bronchiseptica ATCC 4617; experiment: Broth microdilution MIC/MBC; details: ATCC4617
# [5] = test system: Staphylococcus aureus ATCC 29213; experiment: Broth microdilution MIC/MBC; details: ATCC29213
# [6] = test system: Proteus mirabilis ATCC 12453; experiment: Broth microdilution MIC/MBC; details: ATCC12453
# Gram-positive bacteria = experiment: Broth microdilution, summary over reference Gram-positive bacteria; format: cell-based; details: for antibacterial activity in words: reference Gram-positive bacteria / studied bacteria
# From the text: (§1) Procedures of in vitro antimicrobial assays are described in Supplementary Materials.
# (§2) 2. Microbiology – in vitro antimicrobial activity assays […]
# (§3) using the broth microdilution method according to the European Committee on Antimicrobial Susceptibility Testing (EUCAST) and Clinical and Laboratory Standards Institute guidelines against a panel of reference and clinical or saprophytic strains of mi croorganisms, including the Gram-positive bacteria: Staphylococcus aureus ATCC 43300 (Methi-cillin Resistant S. aureus – MRSA), Staphylococcus aureus ATCC 29213 (Methicillin Susceptible S. aureus – MSSA), Staph-ylococcus epidermidis ATCC 12228, Micrococcus luteus ATCC 10240, Bacillus subtilis ATCC 6633 and Bacillus cereus ATCC 10876), Gram-negative bacteria: Bordetella bronchiseptica ATCC 4617, Escherichia coli ATCC 25922, Klebsiella pneumoniae ATCC 13883, Proteus mirabilis ATCC 12453, Salmonella typhimurium ATCC 14028 and Pseudomonas aeruginosa ATCC 9027, and fungi belonging to yeasts: Candida albicans ATCC 10231, Candida albicans ATCC 2091, Candida parapsilosis ATCC 22019, Candida glabrata ATCC 90030 and Candida krusei ATCC 14243. The microorganisms belonging to ATCC originated from American Type Culture Collection, routinely used for the evaluation of antimicrobials. All the used microbial cultures were first subcultured on nutrient agar or Sabouraud agar at 35°C for 18-24 h or 30°C for 24-48 h for bacteria […]
# (§4) The surface of Mueller-Hinton agar (for bacteria) and RPMI 1640 with MOPS (for fungi) were inoculated with the suspensions of bacterial or fungal species. Microbial suspensions were prepared in sterile saline with an optical density of McFarland standard scale 0.5. The samples containing the compounds were dissolved in dimethyl sulfoxide (DMSO).
# (§5) Furthermore, the bacterial and fungal suspensions put onto the Petri dishes with solid media containing 2 mg/mL of the tested compounds followed were incubated at 37°C for 24h and 30°C for 48h for bacteria and fungi, respectively.
# (§6) The inhibition of microbial growth was estimated comparing with a control culture prepared without any tested sam- […]
# (§7) antifungal compounds, respectively.
# (§8) Subsequently, MIC (Minimal Inhibitory Concentration) of the compounds was examined by the microdilution broth method, using their two-fold dilutions in Mueller-Hinton broth (for bacteria) and RPMI 1640 broth with MOPS (for fungi) prepared in the 96-well polystyrene plates. The final concentrations of the compounds ranged from 1000 to 0.488 µg/mL. Microbial suspensions were prepared in 0.85% NaCl with an optical density of 0.5 McFarland standard. Next each bacterial or fungal suspension was added per each well containing broth and various concentrations of the exam-ined compounds. After incubation, the MIC was assessed spectrophotometrically as the lowest concentration of the […]
# (§9) Appropriate DMSO, growth and sterile controls were carried out. The medium with no tested substances was used as a control The MBC (Minimal Bactericidal Concentration) and MFC (Minimal Fungicidal Concentration) are defined as the lowest concentration of the compounds that is required to kill a particular bacterial or fungal species. The MBC/MFC was determined by removing the culture used for the MIC determination from each well and spotted onto the appro-priate agar medium. The plates were incubated under appropriate conditions for bacteria and fungi. The lowest com-pounds concentration with no visible growth observed was assessed as a bactericidal/fungicidal concentration. All the experiments were repeated three times and the representative data are presented.
# (§10) 1. European Committee for Antimicrobial Susceptibility Testing (EUCAST) Determination of minimum inhibitory con-centrations (MICs) of antibacterial agents by broth dilution. EUCAST discussion document E. Dis 5.1. Clin. Microbiol.
# (§11) 2. Clinical and Laboratory Standards Institute. Reference method for broth dilution antifungal susceptibility testing of […]
# [7] = test system: Escherichia coli ATCC 25922; experiment: Broth microdilution MIC/MBC; details: ATCC25922
# [8] = test system: Candida parapsilosis ATCC 22019; experiment: Broth microdilution MIC/MFC; format: cell-based; details: Lodderomyces parapsilosis; for MIC: ATCC22019, read-out: MIC; for MFC: ATCC22019, read-out: MFC
# From the text: as §1, §2, §3, §4, §5, §6, §7, §8, §9, §10, §11
# [9] = test system: Candida albicans ATCC 2091; experiment: Broth microdilution MIC/MFC; format: cell-based; details: for MIC: ATCC2091, read-out: MIC; for MFC: ATCC2091, read-out: MFC
# From the text: as §1, §2, §3, §4, §5, §6, §7, §8, §9, §10, §11
# [10] = test system: Candida glabrata ATCC 90030; experiment: Broth microdilution MIC/MFC; format: cell-based; details: Nakaseomyces glabratus; for MIC: ATCC90030, read-out: MIC; for MFC: ATCC90030, read-out: MFC
# From the text: as §1, §2, §3, §4, §5, §6, §7, §8, §9, §10, §11
# [11] = test system: Candida albicans ATCC 10231; experiment: Broth microdilution MIC/MFC; format: cell-based; details: for MIC: ATCC10231, read-out: MIC; for MFC: ATCC10231, read-out: MFC
# From the text: as §1, §2, §3, §4, §5, §6, §7, §8, §9, §10, §11
# [12] = test system: Candida krusei ATCC 14243; experiment: Broth microdilution MIC/MFC; format: cell-based; details: Pichia kudriavzevii; for MIC: ATCC14243, read-out: MIC; for MFC: ATCC14243, read-out: MFC
# From the text: as §1, §2, §3, §4, §5, §6, §7, §8, §9, §10, §11
# [13] = test system: Staphylococcus aureus ATCC 25923; experiment: Broth microdilution MIC/MBC; details: Staphylococcus aureus, ATCC25923
# [14] = test system: Bacillus subtilis ATCC 6633; experiment: Broth microdilution MIC/MBC; details: ATCC6633
# [15] = test system: Staphylococcus aureus ATCC 43300; experiment: Broth microdilution MIC/MBC; details: ATCC43300 / MRSA
# [16] = test system: Salmonella typhimurium ATCC 14028; experiment: Broth microdilution MIC/MBC; details: Salmonella enterica
# [17] = test system: Bacillus cereus ATCC 10876; experiment: Broth microdilution MIC/MBC; details: Bacillus cereus, ATCC10876
# [18] = test system: Pseudomonas aeruginosa ATCC 9027; experiment: Broth microdilution MIC/MBC; details: ATCC9027
# Candida spp. = experiment: Broth microdilution, summary over reference yeasts; format: cell-based
# From the text: as §1, §2, §3, §4, §5, §6, §7, §8, §9, §10, §11
# [19] = range over the reference Candida spp. strains
SMILES,melting point,MBC [1],MIC [1],MIC [2],MIC [3],MIC [4],MIC [5],MIC [6],MIC [7],MIC [8],MIC [9],MIC [10],MIC [11],MIC [12],MIC [13],MIC [14],MIC [15],MIC [16],MIC [17],MIC [18],further results
"CCOc1cccc(/C=N/NC(=O)c2cccc(I)c2)c1O [Compound 18, N-[(3-ethoxy-2-hydroxyphenyl)methylidene]-3-iodobenzohydrazide]",115 to 121 °C,250 µg/mL,31.2 µg/mL,> 1000 µg/mL,500 µg/mL,> 1000 µg/mL,> 1000 µg/mL,> 1000 µg/mL,> 1000 µg/mL,> 1000 µg/mL,> 1000 µg/mL,> 1000 µg/mL,> 1000 µg/mL,> 1000 µg/mL,> 1000 µg/mL,62.5 µg/mL,> 1000 µg/mL,> 1000 µg/mL,> 1000 µg/mL,> 1000 µg/mL,MBC [3]: > 1000 µg/mL; MIC (Gram-positive bacteria): 31.2 to 1000 µg/mL; MBC [14]: > 1000 µg/mL
"O=C(N/N=C/c1cc(O)ccc1O)c1cccc(I)c1 [Compound 19, N-[(2,5-dihydroxyphenyl)methylidene]-3-iodobenzohydrazide]",220 to 224 °C,,> 1000 µg/mL,> 1000 µg/mL,> 1000 µg/mL,> 1000 µg/mL,> 1000 µg/mL,> 1000 µg/mL,> 1000 µg/mL,125 µg/mL,500 µg/mL,500 µg/mL,250 µg/mL,250 µg/mL,> 1000 µg/mL,> 1000 µg/mL,> 1000 µg/mL,> 1000 µg/mL,> 1000 µg/mL,> 1000 µg/mL,antibacterial activity in words (Gram-positive bacteria): no activity; MFC [8]: > 1000 µg/mL; MFC [9]: > 1000 µg/mL; MFC [10]: > 1000 µg/mL; MFC [11]: > 1000 µg/mL; MFC [12]: > 1000 µg/mL; MFC/MIC (Candida spp.; [19]): > 4; MIC (Candida spp.; [19]): 125 to 500 µg/mL; antifungal activity in words (Candida spp.; reference yeasts from Candida spp.): good and moderate
"O=C(N/N=C/c1ccccc1O)c1ccc(I)cc1 [Compound 23, N-[(2-hydroxyphenyl)methylidene]-4-iodobenzohydrazide]",195 to 205 °C,> 1000 µg/mL,500 µg/mL,> 1000 µg/mL,1000 µg/mL,> 1000 µg/mL,500 µg/mL,> 1000 µg/mL,> 1000 µg/mL,1000 µg/mL,> 1000 µg/mL,> 1000 µg/mL,> 1000 µg/mL,> 1000 µg/mL,1000 µg/mL,1000 µg/mL,500 µg/mL,> 1000 µg/mL,1000 µg/mL,> 1000 µg/mL,"MBC [3]: > 1000 µg/mL; MBC [5]: > 1000 µg/mL; MBC (Gram-positive bacteria; range over the reference Gram-positive bacteria, read-out: MBC): > 1000 µg/mL; MIC (Gram-positive bacteria; range over the reference Gram-positive bacteria, read-out: MIC): 500 to 1000 µg/mL; antibacterial activity in words (Gram-positive bacteria): moderate or mild; MFC [8]: > 1000 µg/mL; MBC [13]: > 1000 µg/mL; MBC [14]: > 1000 µg/mL; MBC [15]: > 1000 µg/mL; MBC [17]: > 1000 µg/mL"
"O=C(N/N=C/c1cc(O)ccc1O)c1ccc(I)cc1 [Compound 26, N-[(2,5-dihydroxyphenyl)methylidene]-4-iodobenzohydrazide]",261 to 265 °C,> 1000 µg/mL,500 µg/mL,> 1000 µg/mL,1000 µg/mL,> 1000 µg/mL,> 1000 µg/mL,> 1000 µg/mL,> 1000 µg/mL,250 µg/mL,1000 µg/mL,1000 µg/mL,500 µg/mL,500 µg/mL,> 1000 µg/mL,500 µg/mL,1000 µg/mL,> 1000 µg/mL,> 1000 µg/mL,> 1000 µg/mL,MBC [3]: > 1000 µg/mL; MFC [8]: > 1000 µg/mL; MFC [9]: > 1000 µg/mL; MFC [10]: > 1000 µg/mL; MFC [11]: > 1000 µg/mL; MFC [12]: > 1000 µg/mL; MBC [14]: > 1000 µg/mL; MBC [15]: > 1000 µg/mL; MFC (Candida spp.; [19]): > 1000 µg/mL; MIC (Candida spp.; [19]): 250 to 1000 µg/mL
